What was measured:
Test in all cases: NADH consumption, A340
Type in all cases: biochemical
Details in all cases: NAD(P)H-dependent reduction; co-substrate, pH and temperature of the Km series not given (unit definition: NADH, pH 7.0, 37 C)
[1] = target: T1, CFR-2KR (2-KLG reductase, 2kr) (Citrobacter freundii, UniProt A0A0P8I5D5)
T1 construct: gene ghrB; full length, His-tagged from pET28a(+), EcoRI/SalI, E. coli BL21(DE3), Ni-NTA
T1 sequence (A0A0P8I5D5 1-324): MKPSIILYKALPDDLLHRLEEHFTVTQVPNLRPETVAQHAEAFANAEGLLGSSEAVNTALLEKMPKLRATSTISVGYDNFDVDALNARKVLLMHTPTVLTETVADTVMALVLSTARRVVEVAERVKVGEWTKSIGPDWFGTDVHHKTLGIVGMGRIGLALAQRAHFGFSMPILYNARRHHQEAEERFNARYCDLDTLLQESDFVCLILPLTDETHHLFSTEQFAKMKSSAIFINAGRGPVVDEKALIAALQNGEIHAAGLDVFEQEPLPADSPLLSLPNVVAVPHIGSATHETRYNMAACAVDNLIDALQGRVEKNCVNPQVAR

[2] = target: T2, ANI-GLUD (2-KLG reductase, GLUD) (Aspergillus niger, UniProt A0A1D8RK43)
T2 construct: full length, synthetic gene without stop codon, BamHI/SalI in pET28a(+), His-tagged, E. coli BL21(DE3), Ni-NTA
T2 sequence (A0A1D8RK43 1-331): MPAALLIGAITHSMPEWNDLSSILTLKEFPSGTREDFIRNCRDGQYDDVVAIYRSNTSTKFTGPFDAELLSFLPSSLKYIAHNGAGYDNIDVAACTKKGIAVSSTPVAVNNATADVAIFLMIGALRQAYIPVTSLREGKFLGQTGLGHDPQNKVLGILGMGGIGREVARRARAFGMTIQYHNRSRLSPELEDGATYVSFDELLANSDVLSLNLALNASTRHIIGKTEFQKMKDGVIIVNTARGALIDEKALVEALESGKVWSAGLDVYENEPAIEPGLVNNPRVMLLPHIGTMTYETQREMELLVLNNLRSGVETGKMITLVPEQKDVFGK

[3] = target: T3, ANI-2KR (2-KLG reductase, 2kr) (Aspergillus niger, UniProt A2Q988)
T3 construct: gene An01g07030; full length, synthetic gene without stop codon, BamHI/SalI in pET28a(+), His-tagged, E. coli BL21(DE3), Ni-NTA
T3 sequence (A2Q988 1-339): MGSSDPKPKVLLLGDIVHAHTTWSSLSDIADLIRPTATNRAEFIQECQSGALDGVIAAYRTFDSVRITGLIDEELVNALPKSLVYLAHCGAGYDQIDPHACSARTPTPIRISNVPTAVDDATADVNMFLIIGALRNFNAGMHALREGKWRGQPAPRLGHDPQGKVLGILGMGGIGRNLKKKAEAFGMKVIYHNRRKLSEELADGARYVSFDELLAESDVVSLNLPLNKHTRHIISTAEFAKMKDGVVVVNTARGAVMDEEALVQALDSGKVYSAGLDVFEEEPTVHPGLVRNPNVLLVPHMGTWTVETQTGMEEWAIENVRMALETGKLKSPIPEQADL

Measured: Km

O=C(O)C(=O)[C@@H](O)[C@H](O)[C@@H](O)CO [2-KLG, 2-keto-L-gulonic acid]
Km and Vmax values for 2-KLG reductases: all assays above

From paper PMC6923176, “High-Throughput Screening of a 2-Keto-L-Gulonic Acid-Producing Gluconobacter oxydans Strain Based on Related Dehydrogenases” (Frontiers in Bioengineering and Biotechnology, 2019)
